Values quoted from earlier work, collected in patent US9493512B2, “Solution phase processes for the manufacture of macrocyclic depsipeptides and new intermediates” (NOVARTIS AG, priority 2012, dated 2016).
pIC50: −log10 of the molar value.

Molecular target: chymotrypsin (Bos taurus, UniProt P00766)
Details: see J. Nat. Prod. 68(9), 1324-7 (2005); read-out: IC50 value, inhibition of chymotrypsin

In the case of `CC(=O)N[C@@H](CCC(N)=O)C(=O)N[C@@H]1C(=O)N[C@@H](CC(C)C)C(=O)N[C@H]2CC[C@@H](O)N(C2=O)[C@@H](Cc2ccccc2)C(=O)N(C)[C@@H](Cc2ccc(O)cc2)C(=O)N[C@@H](C(C)C)C(=O)O[C@@H]1C` [Nostopeptin (BN920)], the pIC50 is given as 7.51.
